These results are taken from patent US20260356804A1, “SODIUM CHANNEL BLOCKING COMPOUNDS, DERIVATIVES THEREOF, AND METHODS OF THEIR USE” (LATIGO BIOTHERAPEUTICS, INC., priority 2022, published 2026).

In this test the target is T1, human Nav1.8/b3 (Homo sapiens, UniProt Q9Y5Y9).
T1 construct: expressed in transfected cells; host or cells: CHO
The test can be described thus: Compound Profiling Human NaV1.8/β3 Cell Line—SyncroPatch384PE Assay (automated patch clamp, stably transfected CHO cells). The format is cell-based. The following applies: Nav1.8/b3 CHO cells.

Where [1] appears, read: P1 (IC50, resting state block), P1 measurement, resting state block, holding potential −120 mV, first set of compounds.
Where [2] appears, read: P2 (IC50, inactivated state block), P2 measurement, inactivated state block, inactivation step −35 mV 10 sec, first set of compounds.
The mark [3] stands for this setting: P1 (IC50, resting state block), P1 measurement, resting state block, holding potential −120 mV, third set of compounds.
[4] abbreviates: P2 (IC50, inactivated state block), P2 measurement, inactivated state block, inactivation step −35 mV 10 sec, third set of compounds.
The mark [5] stands for this setting: P1 (IC50, resting state block), P1 measurement, resting state block, holding potential −120 mV, second set of compounds.
Where [6] appears, read: P2 (IC50, inactivated state block), P2 measurement, inactivated state block, inactivation step −35 mV 10 sec, second set of compounds.
Where [7] appears, read: P1 (IC50, resting state block), P1 measurement, resting state block, holding potential −120 mV, fourth set of compounds.
Where [8] appears, read: P2 (IC50, inactivated state block), P2 measurement, inactivated state block, inactivation step −35 mV 10 sec, fourth set of compounds.

Structures can show the parent of a compound that is named as a salt. Where two headings read alike, the source gives them in different places.

T1 sequence (Q9Y5Y9 whole entry): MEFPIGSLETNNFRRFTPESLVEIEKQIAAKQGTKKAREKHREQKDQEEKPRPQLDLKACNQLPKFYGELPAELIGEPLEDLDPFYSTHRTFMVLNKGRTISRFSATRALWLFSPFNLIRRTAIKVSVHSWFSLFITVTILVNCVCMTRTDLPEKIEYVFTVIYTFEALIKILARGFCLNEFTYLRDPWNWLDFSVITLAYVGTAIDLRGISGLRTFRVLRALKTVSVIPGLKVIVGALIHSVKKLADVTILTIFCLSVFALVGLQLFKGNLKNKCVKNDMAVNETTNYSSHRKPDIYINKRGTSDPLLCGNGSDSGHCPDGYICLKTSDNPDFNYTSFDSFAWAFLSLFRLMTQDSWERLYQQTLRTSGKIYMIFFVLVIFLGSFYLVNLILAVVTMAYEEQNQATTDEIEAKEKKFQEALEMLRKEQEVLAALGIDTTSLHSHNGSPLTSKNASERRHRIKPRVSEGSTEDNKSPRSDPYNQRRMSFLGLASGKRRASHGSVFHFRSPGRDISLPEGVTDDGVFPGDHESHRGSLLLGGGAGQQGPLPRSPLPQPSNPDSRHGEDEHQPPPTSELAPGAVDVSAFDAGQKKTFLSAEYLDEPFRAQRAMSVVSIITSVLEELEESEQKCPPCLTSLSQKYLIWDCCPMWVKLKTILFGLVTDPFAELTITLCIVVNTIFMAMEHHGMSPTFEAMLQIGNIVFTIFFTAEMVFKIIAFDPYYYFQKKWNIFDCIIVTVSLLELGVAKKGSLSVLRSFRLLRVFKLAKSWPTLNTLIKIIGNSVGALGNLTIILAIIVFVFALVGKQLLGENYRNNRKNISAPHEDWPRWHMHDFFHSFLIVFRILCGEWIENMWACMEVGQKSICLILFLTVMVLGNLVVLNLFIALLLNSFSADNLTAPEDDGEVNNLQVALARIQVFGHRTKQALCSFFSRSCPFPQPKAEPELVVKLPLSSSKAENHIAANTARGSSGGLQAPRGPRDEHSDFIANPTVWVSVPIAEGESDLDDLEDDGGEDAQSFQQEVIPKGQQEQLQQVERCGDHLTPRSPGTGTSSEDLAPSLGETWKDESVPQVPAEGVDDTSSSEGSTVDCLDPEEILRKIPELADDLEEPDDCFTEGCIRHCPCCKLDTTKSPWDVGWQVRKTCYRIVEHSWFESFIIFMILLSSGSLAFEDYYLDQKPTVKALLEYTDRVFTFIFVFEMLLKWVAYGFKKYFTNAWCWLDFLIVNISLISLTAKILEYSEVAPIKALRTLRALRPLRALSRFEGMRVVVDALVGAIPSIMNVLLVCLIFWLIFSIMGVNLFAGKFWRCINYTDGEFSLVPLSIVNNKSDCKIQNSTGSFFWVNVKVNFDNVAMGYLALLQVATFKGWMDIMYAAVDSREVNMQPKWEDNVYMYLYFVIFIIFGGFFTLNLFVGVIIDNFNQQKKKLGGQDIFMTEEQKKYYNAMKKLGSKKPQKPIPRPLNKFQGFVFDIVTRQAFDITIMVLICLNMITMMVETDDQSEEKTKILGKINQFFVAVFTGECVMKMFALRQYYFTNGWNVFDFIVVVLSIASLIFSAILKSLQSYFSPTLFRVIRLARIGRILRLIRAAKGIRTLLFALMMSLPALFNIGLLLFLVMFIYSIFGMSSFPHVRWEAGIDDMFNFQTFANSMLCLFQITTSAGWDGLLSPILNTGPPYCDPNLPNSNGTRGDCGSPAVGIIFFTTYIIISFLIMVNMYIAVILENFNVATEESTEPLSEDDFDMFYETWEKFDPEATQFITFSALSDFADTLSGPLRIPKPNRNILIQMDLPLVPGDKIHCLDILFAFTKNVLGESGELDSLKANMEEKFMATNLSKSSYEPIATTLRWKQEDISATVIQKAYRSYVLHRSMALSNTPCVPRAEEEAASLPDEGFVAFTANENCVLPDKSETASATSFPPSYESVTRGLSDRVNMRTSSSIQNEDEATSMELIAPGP
T1 sequence (Q9NY72 23-215 partner): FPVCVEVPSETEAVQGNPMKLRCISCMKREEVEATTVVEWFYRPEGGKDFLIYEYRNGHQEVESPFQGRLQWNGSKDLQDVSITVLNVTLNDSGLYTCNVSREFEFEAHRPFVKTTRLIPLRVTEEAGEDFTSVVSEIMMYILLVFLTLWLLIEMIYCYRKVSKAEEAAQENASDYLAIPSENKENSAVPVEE

`Cc1nc(F)ccc1Oc1ccc(C(F)(F)F)c(C)c1C(=O)Nc1cccc([S@](C)(=N)=O)c1` [Example 3A, (R)-6-((6-fluoro-2-methylpyridin-3-yl)oxy)-2-methyl-N-(3-(S-methylsulfonimidoyl)phenyl)-3-(trifluoromethyl)benzamide]: the IC50 is less than 5 nM under setting [1] and less than 5 nM under setting [2].

As for `Cc1ccc(Oc2ncc(C(F)(F)F)c(C)c2C(=O)Nc2cccc([S@@](C)(=N)=O)c2)c(F)n1` [Example 121C], the IC50 was 50 to 100 nM under setting [3] and 50 to 100 nM under setting [4].

As to `Cc1nc(F)ccc1Oc1ccc(C(F)(F)F)c(F)c1C(=O)Nc1cccc([S@@](C)(=O)=NC(=O)[C@@H](C)O)c1` [Example 19B, 2-fluoro-6-((6-fluoro-2-methylpyridin-3-yl)oxy)-N-(3-((R)—N—((R)-2-hydroxypropanoyl)-S-methylsulfonimidoyl)phenyl)-3-(trifluoromethyl)benzamide], the IC50 reads like this: under setting [5], less than 5 nM; under setting [6], less than 5 nM.

In the case of `Cc1nc(F)ccc1Oc1nc(C2CC2)c(C(F)(F)F)c(C)c1C(=O)Nc1ccnc([S@@](C)(=N)=O)c1` [Example 105C], the IC50 runs as follows: under setting [3], less than 5 nM; under setting [4], less than 5 nM.

For `Cc1nc(F)ccc1Oc1cc(C(F)(F)F)c(Cl)cc1C(=O)Nc1cccc([S@@](C)(=O)=NC(=O)CN)c1` [Example 4B, (R)-5-chloro-2-((6-fluoro-2-methylpyridin-3-yl)oxy)-N-(3-(N-glycyl-S-methylsulfonimidoyl)phenyl)-4-(trifluoromethyl)benzamide], the IC50 is less than 5 nM under setting [5] and less than 5 nM under setting [6].

On to `Cc1nc(F)ccc1Oc1nc(C(F)(F)F)c(Cl)c(C)c1C(=O)Nc1cccc([S@](C)(=N)=O)c1` [Example 35C, (R)-5-chloro-2-((6-fluoro-2-methylpyridin-3-yl)oxy)-4-methyl-N-(3-(S-methylsulfonimidoyl)phenyl)-6-(trifluoromethyl)nicotinamide], for which the IC50 was less than 5 nM under setting [3] and less than 5 nM under setting [4].

As to `CNCCN=[S@](C)(=O)c1cccc(NC(=O)c2c(Oc3ccc(F)nc3C)ncc(C(F)(F)F)c2C)c1` [Example 109C], the IC50 (P1 measurement, resting state block, holding potential −120 mV, third set of compounds, read-out: P1 (IC50, resting state block)) is less than 5 nM and the IC50 (P2 measurement, inactivated state block, inactivation step −35 mV 10 sec, third set of compounds, read-out: P2 (IC50, inactivated state block)) was less than 5 nM.

Turning to `Cc1nc(F)ccc1Oc1cc(C(F)(F)F)c(Cl)cc1C(=O)Nc1ccc([S@](C)(=N)=O)cc1` [Example 49A], the IC50 is 50 to 100 nM under setting [1] and 50 to 100 nM under setting [2].

`Cc1nc(F)ccc1Oc1cc(C2CC2)c(C(F)(F)F)cc1C(=O)Nc1ccnc([S@](C)(=N)=O)c1` [Example 58A]: the IC50 under setting [1] was less than 5 nM and the IC50 under setting [2] was less than 5 nM.

As for `Cc1nc(F)ccc1Oc1ncc(C(F)(F)F)c(C)c1C(=O)Nc1cccc([S@@](C)(=O)=NC(=O)[C@@H](C)N)c1` [Example 9D, N-(3-((R)—N-(D-alanyl)-S-methylsulfonimidoyl)phenyl)-2-((6-fluoro-2-methylpyridin-3-yl)oxy)-4-methyl-5-(trifluoromethyl)nicotinamide formate], the IC50 under setting [7] was less than 5 nM and the IC50 under setting [8] is less than 5 nM.

Regarding `Cc1nc(F)ccc1Oc1cc(C(F)(F)F)c(Cl)cc1C(=O)Nc1ccc(F)c(S(C)(=O)=O)c1` [Example 54A], the IC50 is less than 5 nM under setting [1] and less than 5 nM under setting [2].

On to `COc1c(Oc2cc(C(F)(F)F)nnc2C(=O)Nc2cccc(S(C)(=O)=O)c2)ccc(F)c1F` [Example 32C, 4-(3,4-difluoro-2-methoxyphenoxy)-N-(3-(methylsulfonyl)phenyl)-6-(trifluoromethyl)pyridazine-3-carboxamide], for which the IC50 was in the range of 50 to 100 nM under setting [3] and 50 to 100 nM under setting [4].

As to `Cc1nc(F)ccc1Oc1cc(C(F)(F)F)cc(F)c1C(=O)Nc1ccnc([S@@](C)(=N)=O)c1` [Example 33A], the IC50 under setting [1] was 5 to 50 nM and the IC50 under setting [2] lay within 5 to 50 nM.

With `C[S@@](=N)(=O)c1cc(NC(=O)c2cc(Cl)c(C(F)(F)F)cc2OCC(F)(F)F)ccn1` [Example 35A], the IC50 lay within 50 to 100 nM (P1 measurement, resting state block, holding potential −120 mV, first set of compounds, read-out: P1 (IC50, resting state block)) and 50 to 100 nM (P2 measurement, inactivated state block, inactivation step −35 mV 10 sec, first set of compounds, read-out: P2 (IC50, inactivated state block)).

For the molecule `CNCC(=O)N=[S@](C)(=O)c1cccc(NC(=O)c2c(Oc3ccc(F)nc3C)ccc(C(F)(F)F)c2F)c1` [Example 17B, (R)-2-fluoro-6-((6-fluoro-2-methylpyridin-3-yl)oxy)-N-(3-(S-methyl-N-(methylglycyl)sulfonimidoyl)phenyl)-3-(trifluoromethyl)benzamide], the IC50 reads like this: under setting [5], less than 5 nM; under setting [6], less than 5 nM.

`Cc1nc(F)ccc1Oc1ncc(C(F)(F)F)c(C)c1C(=O)Nc1ccnc([S@@](C)(=N)=O)c1` (single isomer, unassigned) [Example 10C]: the IC50 reads like this: under setting [3], 5 to 50 nM; under setting [4], 5 to 50 nM.

The molecule `Cc1nc(F)ccc1Oc1ncc(C(F)(F)F)c(C)c1C(=O)Nc1cccc([S@@](C)(=O)=NC(=O)[C@H]2CCCO2)c1` [Example 14D, 2-((6-fluoro-2-methylpyridin-3-yl)oxy)-4-methyl-N-(3-((R)—S-methyl-N—((R)-tetrahydrofuran-2-carbonyl)sulfonimidoyl)phenyl)-5-(trifluoromethyl)nicotinamide] came in with a half-maximal inhibitory concentration (IC50) under setting [7] of less than 5 nM and an IC50 under setting [8] of less than 5 nM.

Take `Cc1nc(F)ccc1Oc1ncc(C2CC2)c(C)c1C(=O)Nc1cccc([S@](C)(=N)=O)c1` [Example 12C, (R)-5-cyclopropyl-2-((6-fluoro-2-methylpyridin-3-yl)oxy)-4-methyl-N-(3-(S-methylsulfonimidoyl)phenyl)nicotinamide]: the IC50 reads like this: under setting [3], 50 to 100 nM; under setting [4], 50 to 100 nM.

Take `Cc1nc(F)ccc1Oc1nc2ccccc2cc1C(=O)Nc1ccnc([S@](C)(=N)=O)c1` [Example 93C]: the IC50 lay in the range of 100 to 200 nM under setting [3] and 100 to 200 nM under setting [4].

Take `Cc1nc(F)ccc1Oc1ncc(I)c(C)c1C(=O)Nc1cccc([S@](C)(=N)=O)c1` [Example 122C]: the half-maximal inhibitory concentration (IC50) runs as follows: under setting [3], 5 to 50 nM; under setting [4], 5 to 50 nM.

Turning to `Cc1nc(F)ccc1Oc1cc(C2CC2)c(C(F)(F)F)cc1C(=O)Nc1cccc([S@@](C)(=N)=O)c1` [Example 59A], the IC50 is, setting by setting: under setting [1], less than 5 nM; under setting [2], less than 5 nM.

For `Cc1nc(F)ccc1Oc1ncc(C(F)(F)F)c(C)c1C(=O)Nc1cccc([S@@](C)(=O)=NC(=O)CN)c1` [Example 2D, (R)-2-((6-fluoro-2-methylpyridin-3-yl)oxy)-N-(3-(N-glycyl-S-methylsulfonimidoyl)phenyl)-4-methyl-5-(trifluoromethyl)nicotinamide], the IC50 under setting [7] was less than 5 nM and the IC50 under setting [8] was less than 5 nM.

For `Cc1nc(F)ccc1Oc1cc(C(F)(F)F)c(Cl)cc1C(=O)Nc1ccc(F)c([S@](C)(=N)=O)c1` [Example 71A], the IC50 by setting is: under setting [1], less than 5 nM; under setting [2], less than 5 nM.

`Cc1nc(F)ccc1Oc1cc(C(F)(F)F)c(Cl)cc1C(=O)Nc1ccc(C(N)=O)nc1` [Example 64A]: the IC50 under setting [1] is 5 to 50 nM and the IC50 under setting [2] lay in the range of 5 to 50 nM.

Regarding `Cc1nc(O)ccc1Oc1ncc(C(F)(F)F)c(C)c1C(=O)Nc1cccc([S@](C)(=N)=O)c1` [Example 117C], the IC50 was greater than 200 nM under setting [3] and greater than 200 nM under setting [4].

As to `COc1cc(C#N)ccc1Oc1ncc(-c2ccc(C(F)F)cc2)c(C)c1C(=O)Nc1cccc([S@](C)(=N)=O)c1` [Example 23C, (R)-2-(4-cyano-2-methoxyphenoxy)-5-(4-(difluoromethyl)phenyl)-4-methyl-N-(3-(S-methylsulfonimidoyl)phenyl)nicotinamide], the IC50 runs as follows: under setting [3], less than 5 nM; under setting [4], less than 5 nM.

Consider `Cc1nc(F)ccc1Oc1nnc(C(F)(F)F)c(C)c1C(=O)Nc1cccc([S@@](C)(=O)=NC(=O)CN)c1` [Example 24D, (R)-3-((6-fluoro-2-methylpyridin-3-yl)oxy)-N-(3-(N-glycyl-S-methylsulfonimidoyl)phenyl)-5-methyl-6-(trifluoromethyl)pyridazine-4-carboxamide], for which the IC50 by setting is: under setting [7], 5 to 50 nM; under setting [8], 5 to 50 nM.

On to `Cc1nc(F)ccc1Oc1cc(C(F)(F)F)c(Cl)cc1C(=O)Nc1ccc(F)c([S@@](C)(=N)=O)c1` [Example 70A], for which the IC50 was less than 5 nM under setting [1] and less than 5 nM under setting [2].

On to `COCC(=O)N=[S@](C)(=O)c1cccc(NC(=O)c2c(Oc3ccc(F)nc3C)ncc(C(F)(F)F)c2C)c1` [Example 8D, (R)-2-((6-fluoro-2-methylpyridin-3-yl)oxy)-N-(3-(N-(2-methoxyacetyl)-S-methylsulfonimidoyl)phenyl)-4-methyl-5-(trifluoromethyl)nicotinamide], for which the IC50 is less than 5 nM under setting [7] and less than 5 nM under setting [8].

As to `Cc1nc(F)ccc1Oc1ncc(C2CCC2)c(C)c1C(=O)Nc1ccnc([S@](C)(=N)=O)c1` [Example 98C], the IC50 lay within 5 to 50 nM under setting [3] and 5 to 50 nM under setting [4].

Take `CCCc1cnc(Oc2ccc(F)nc2C)c(C(=O)Nc2cccc([S@](C)(=N)=O)c2)c1C` [Example 103C]: the IC50 fell in the range of 50 to 100 nM under setting [3] and 50 to 100 nM under setting [4].
